Data taken from publication PMC7269146, “Jingzhaotoxin-X, a gating modifier of Kv4.2 and Kv4.3 potassium channels purified from the venom of the Chinese tarantula Chilobrachys jingzhao” (The Journal of Venomous Animals and Toxins Including …, 2020).
Where a SMILES comes first, the peptide text is derived from it. Bridges are numbered along the chain shown (N, C = ends).

Assay: mechanical hyperalgesia / nociceptive behavior in mice (von Frey, up-down)
Format: in vivo, mouse (male C57BL/6)
Conditions: 40 nmol/kg
Description: In the present study, male C57BL/6 mice weighing 20-25 g were utilized. This study was performed following the Guide for the Care and Use of Laboratory Animals released by the United States National Institutes of Health (US NIH). Our study protocol was approved by the Animal Experiments Ethics Committee at Central Southern University (No. 2018-2-6). Each operation was performed under isoflurane-induced anesthesia to reduce pain and minimize animal suffering. Lumbar puncture was also conducted for intrathecal injection, as described previously. Next, the effect of JZTX-X on nociception was evaluated by assessing the behaviors during the mechanical hyperalgesia process. The JZTX-X-induced mechanical hyperalgesia was investigated by two experiments via various administration routes, including intrathecal and intraplantar injections. Then, animals were challenged via intrathecal (10 µL) or intraplantar (20 µL) injection of JZTX-X (40 nmol/kg). The control group was given a physiological solution, which contained 0.9% NaCl, […].
Mechanical hyperalgesia was measured according to the previously depicted “up-down” paradigm. Individual mice were allowed to acclimate for at least 30 min on the mesh floor in suspended chambers. After acclimatization, various calibrated von Frey filaments (Stoelting, Wood Dale, IL) were applied to all animals, which were vertical to the hind paw plantar surfaces becausethere was enough force for bending those filaments for 6 s. Later, the animal responses were recorded. The positive response was defined as paw flinching or brisk withdrawal. When there was no response, force filament at a greater level was applied. Accordingly, force ligament at a lower level was applied […]. The “up-down” approach was adopted to calculate the 50% likelihood where one withdrawal response was produced by the simple stimulus.

CC(C)C[C@@H]1NC(=O)[C@H](CCCCN)NC(=O)[C@H](Cc2ccc(O)cc2)NC(=O)[C@@H]2CSSC[C@@H]3NC(=O)[C@H](Cc4ccc(O)cc4)NC(=O)[C@H](Cc4ccccc4)NC(=O)CNC(=O)[C@H](C)NC(=O)[C@H](CSSC[C@H](NC(=O)[C@@H](N)CC(C)C)C(=O)N[C@@H](CO)C(=O)N[C@@H](CCCNC(=N)N)C(=O)N[C@@H](CCC(=O)O)C(=O)NCC(=O)N[C@@H](CCC(=O)O)C(=O)N[C@@H](Cc4ccccc4)C(=O)N2)NC(=O)[C@H](CSSC[C@@H](C(=O)N[C@@H](Cc2ccc(O)cc2)C(=O)N[C@@H](CCCNC(=N)N)C(=O)N[C@@H](CC(N)=O)C(=O)O)NC(=O)[C@H](Cc2c[nH]cn2)NC(=O)[C@H](CC(C)C)NC(=O)[C@H](C(C)C)NC(=O)[C@H](Cc2ccccc2)NC(=O)[C@H](C)NC(=O)[C@H](CCCCN)NC3=O)NC(=O)[C@H](CCCCN)NC(=O)[C@H](CCCNC(=N)N)NC1=O [JZTX-X, Jingzhaotoxin-X] (H-LCSREGEFCYKLRKCCAGFYCKAFVLHCYRN-OH; disulfide 2-16, 9-21, 15-28; N-terminus assumed)
baseline threshold of tactile withdrawal (intraplantar, n = 8): markedly decreased | duration of reduced paw withdrawal threshold (intrathecal or intraplantar, after cessation of treatment): at least 120 min | spontaneous nociceptive behaviors (intrathecal or intraplantar, n = 8): did not induce spontaneous nociceptive behaviors | baseline threshold of tactile withdrawal (intrathecal, n = 8): markedly decreased
